# According to US20200345733A1, “Microbicidal Pyrimidine or Triazine Containing Compounds” (Janssen Sciences Ireland UC, priority 2002, published 2020):
# Experiment: White rabbit vaginal irritation and toxicity study (10 days)
# Type: in vivo
# Settings: female rabbits, 10 days after application; animals with finding
# Experimental: Gel formulations of the compound B at different concentrations were used to study the exclusion of any irritation in a Rabbit Vaingal Irritation test. 10 days after the application of the gel formulations onto 6 different rabbit groups, vaginal and cervical epithelium were carefully examined by a pathologist macroscopically and histologically. The following scores were determined.
substance,measurement,value
"Nonoxynol-9 [Nonoxynol-9, 4%]","Cervical examination: Epithelial loss and atrophy, Marked",3
same,"Cervical examination: Epithelial loss and atrophy, Slight",1
same,"Cervical examination: Epithelial loss and atrophy, Total",4a
same,"Cervical examination: Luminal Inflammatory cells, Present",4
same,"Cervical examination: Luminal Inflammatory cells, Total",4a
same,"Vaginal examination: Epithelial inflammatory infiltrate, Minimal",3
same,"Vaginal examination: Epithelial inflammatory infiltrate, Slight",2
same,"Vaginal examination: Epithelial inflammatory infiltrate, Total",5a
same,"Vaginal examination: Epithelial loss and atrophy, Marked",2
same,"Vaginal examination: Epithelial loss and atrophy, Severe",3
same,"Vaginal examination: Epithelial loss and atrophy, Total",5b
